According to patent US20260345517A1, “DOSAGE REGIMENS FOR TREATING STARGARDT DISEASE” (Alkeus Pharmaceuticals, Inc., priority 2024, published 2026):

Experiment: TEASE-1: safety and adverse events
Format: in vivo, human
Experimental: The Tolerability and Effects of gildeuretinol acetate in Stargardt Disease (Clinical trial group 1 also known as TEASE-1) was a 24-month, multicenter, double-masked, placebo-controlled trial designed to evaluate the efficacy and safety of daily oral gildeuretinol acetate in slowing the growth of atrophic retinal lesions in Stargardt disease patients. The trial was conducted at multiple sites in the United States (NCT02402660).
Patients 12 years or older, clinically diagnosed with Stargardt disease, with at least one ABCA4 mutation, at least one eye presenting with well-demarcated areas of reduced fundus autofluorescence, and with any visual acuity, were eligible.
Patients were randomized to gildeuretinol acetate 14 mg capsules, gildeuretinol acetate 24 mg capsules, or placebo capsules, to be taken once daily for one year. After one year, 50% of randomly selected patients receiving placebo were crossed over in a 1:1 ratio to gildeuretinol acetate 14 mg capsules or gildeuretinol acetate 24 mg capsules for a second year.
Gildeuretinol acetate and placebo capsules were identical appearing capsules. Patients were advised to avoid vitamin A-containing supplements and liver-based products. Fruits and vegetables contain beta-carotene, not preformed vitamin A, and could be consumed without limitation. Trial visits occurred at 8 weeks and 6, 12, 18, and 24 months following screening and randomization.

CC(=O)OC/C=C(C)/C=C/C=C(C)/C=C/C1=C(C)CCCC1(C)C [gildeuretinol acetate, C20-D3-retinol acetate]
Inflammation (24 mg, N = 15): 0 patients (%)
Influenza (24 mg, N = 15): 1 (6.7) patients (%)
Insomnia (24 mg, N = 15): 0 patients (%)
Intracranial pressure increased (24 mg, N = 15): 1 (6.7) patients (%)
Irritability (24 mg, N = 15): 0 patients (%)
Jaw operation (24 mg, N = 15): 1 (6.7) patients (%)
Knee arthroplasty (24 mg, N = 15): 0 patients (%)
Laryngitis (24 mg, N = 15): 0 patients (%)
Lip swelling (24 mg, N = 15): 0 patients (%)
Low density lipoprotein increased (24 mg, N = 15): 0 patients (%)
Muscle spasms (24 mg, N = 15): 0 patients (%)
Muscle strain (24 mg, N = 15): 0 patients (%)
Musculoskeletal pain (24 mg, N = 15): 1 (6.7) patients (%)
Nasopharyngitis (24 mg, N = 15): 3 (20.0) patients (%)
Nausea (24 mg, N = 15): 1 (6.7) patients (%)
Neck pain (24 mg, N = 15): 0 patients (%)
Nephrolithiasis (24 mg, N = 15): 0 patients (%)
Nerve compression (24 mg, N = 15): 0 patients (%)
Neuralgia (24 mg, N = 15): 0 patients (%)
Obsessive-compulsive disorder (24 mg, N = 15): 0 patients (%)
Oropharyngeal pain (24 mg, N = 15): 3 (20.0) patients (%)
Osteoporosis (24 mg, N = 15): 1 (6.7) patients (%)
Pain (24 mg, N = 15): 0 patients (%)
Pain in extremity (24 mg, N = 15): 2 (13.3) patients (%)
Pain in jaw (24 mg, N = 15): 0 patients (%)
Peripheral coldness (24 mg, N = 15): 0 patients (%)
Pharyngitis streptococcal (24 mg, N = 15): 0 patients (%)
Photophobia (24 mg, N = 15): 0 patients (%)
Photopsia (24 mg, N = 15): 0 patients (%)
Plantar fasciitis (24 mg, N = 15): 0 patients (%)
Pleurisy (24 mg, N = 15): 0 patients (%)
Pneumonia (24 mg, N = 15): 0 patients (%)
Premenstrual syndrome (24 mg, N = 15): 1 (6.7) patients (%)
Punctate keratitis (24 mg, N = 15): 0 patients (%)
Pyrexia (24 mg, N = 15): 1 (6.7) patients (%)
Radius fracture (24 mg, N = 15): 0 patients (%)
Rash (24 mg, N = 15): 0 patients (%)
Rotator cuff syndrome (24 mg, N = 15): 1 (6.7) patients (%)
Sialoadenitis (24 mg, N = 15): 0 patients (%)
Sinus congestion (24 mg, N = 15): 1 (6.7) patients (%)
Sinusitis (24 mg, N = 15): 0 patients (%)
Sjogren's syndrome (24 mg, N = 15): 0 patients (%)
Skin infection (24 mg, N = 15): 0 patients (%)
Subdural haematoma (24 mg, N = 15): 0 patients (%)
Syncope (24 mg, N = 15): 1 (6.7) patients (%)
Tendonitis (24 mg, N = 15): 0 patients (%)
Thoracic outlet syndrome (24 mg, N = 15): 0 patients (%)
Tongue dry (24 mg, N = 15): 0 patients (%)
Tooth abscess (24 mg, N = 15): 1 (6.7) patients (%)
Tooth extraction (24 mg, N = 15): 1 (6.7) patients (%)
Toothache (24 mg, N = 15): 0 patients (%)
Upper respiratory tract infection (24 mg, N = 15): 1 (6.7) patients (%)
Vision blurred (24 mg, N = 15): 0 patients (%)
Visual field defect (24 mg, N = 15): 0 patients (%)
Visual impairment (24 mg, N = 15): 0 patients (%)
Vitamin B12 deficiency (24 mg, N = 15): 0 patients (%)
Vitamin D decreased (24 mg, N = 15): 1 (6.7) patients (%)
Vitreous floaters (24 mg, N = 15): 0 patients (%)
Vulvovaginal candidiasis (24 mg, N = 15): 1 (6.7) patients (%)
Wrist fracture (24 mg, N = 15): 0 patients (%)
Xanthelasma (24 mg, N = 15): 1 (6.7) patients (%)
elevated intracranial pressure (24 mg, one patient): Elevated intracranial pressure was measured
papilledema grade (modified Frisen scale) with elevated intracranial pressure (24 mg, one patient, resolved upon temporary interruption and acetazolamide): Grade 1
Abdominal discomfort (crossover, N = 10): 1 (10.0) patients (%)
Abdominal distension (crossover, N = 10): 0 patients (%)
Abdominal pain upper (crossover, N = 10): 0 patients (%)
Abnormal dreams (crossover, N = 10): 0 patients (%)
Adverse events, Overall (crossover, N = 10): 8 (80) patients (%)
Alanine aminotransferase increased (crossover, N = 10): 1 (10.0) patients (%)
Alopecia (crossover, N = 10): 0 patients (%)
Ankle fracture (crossover, N = 10): 0 patients (%)
Arthralgia (crossover, N = 10): 1 (10.0) patients (%)
Arthritis (crossover, N = 10): 1 (10.0) patients (%)
Aspartate aminotransferase increased (crossover, N = 10): 1 (10.0) patients (%)
Back injury (crossover, N = 10): 0 patients (%)
Back pain (crossover, N = 10): 0 patients (%)
Blepharospasm (crossover, N = 10): 1 (10.0) patients (%)
Blood cholesterol increased (crossover, N = 10): 0 patients (%)
Blood creatinine increased (crossover, N = 10): 0 patients (%)
Blood iron decreased (crossover, N = 10): 0 patients (%)
Blood pressure increased (crossover, N = 10): 0 patients (%)
Blood triglycerides increased (crossover, N = 10): 0 patients (%)
Bowel movement irregularity (crossover, N = 10): 0 patients (%)
Bronchitis (crossover, N = 10): 0 patients (%)
Cartilage injury (crossover, N = 10): 0 patients (%)
Conjunctival laceration (crossover, N = 10): 0 patients (%)
Conjunctivitis (crossover, N = 10): 0 patients (%)
Constipation (crossover, N = 10): 0 patients (%)
Cough (crossover, N = 10): 0 patients (%)
Death (crossover, N = 10): 0 patients (%)
Depression (crossover, N = 10): 0 patients (%)
Diarrhoea (crossover, N = 10): 1 (10.0) patients (%)
Diplopia (crossover, N = 10): 0 patients (%)
Dry eye (crossover, N = 10): 0 patients (%)
Dry mouth (crossover, N = 10): 0 patients (%)
Dry skin (crossover, N = 10): 0 patients (%)
Ear discomfort (crossover, N = 10): 0 patients (%)
Ear infection (crossover, N = 10): 1 (10.0) patients (%)
Ear pain (crossover, N = 10): 0 patients (%)
Eczema (crossover, N = 10): 1 (10.0) patients (%)
Electrocardiogram abnormal (crossover, N = 10): 1 (10.0) patients (%)
Erythema (crossover, N = 10): 0 patients (%)
Eye irritation (crossover, N = 10): 0 patients (%)
Eye pain (crossover, N = 10): 0 patients (%)
Eye pruritus (crossover, N = 10): 0 patients (%)
Face injury (crossover, N = 10): 0 patients (%)
Faeces soft (crossover, N = 10): 0 patients (%)
Fall (crossover, N = 10): 0 patients (%)
Gastroenteritis (crossover, N = 10): 1 (10.0) patients (%)
Gastroenteritis viral (crossover, N = 10): 0 patients (%)
Hair texture abnormal (crossover, N = 10): 0 patients (%)
Hand fracture (crossover, N = 10): 0 patients (%)
Headache (crossover, N = 10): 0 patients (%)
Herpes zoster (crossover, N = 10): 0 patients (%)
Hordeolum (crossover, N = 10): 0 patients (%)
Hypertension (crossover, N = 10): 0 patients (%)
Hypobarism (crossover, N = 10): 0 patients (%)
Hypothyroidism (crossover, N = 10): 0 patients (%)
Hysterectomy (crossover, N = 10): 0 patients (%)
Inflammation (crossover, N = 10): 0 patients (%)
Influenza (crossover, N = 10): 0 patients (%)
Insomnia (crossover, N = 10): 0 patients (%)
Intracranial pressure increased (crossover, N = 10): 0 patients (%)
Irritability (crossover, N = 10): 0 patients (%)
Jaw operation (crossover, N = 10): 0 patients (%)
Knee arthroplasty (crossover, N = 10): 0 patients (%)
Laryngitis (crossover, N = 10): 0 patients (%)
Lip swelling (crossover, N = 10): 0 patients (%)
Low density lipoprotein increased (crossover, N = 10): 0 patients (%)
Muscle spasms (crossover, N = 10): 0 patients (%)
Muscle strain (crossover, N = 10): 0 patients (%)
Musculoskeletal pain (crossover, N = 10): 0 patients (%)
Nasopharyngitis (crossover, N = 10): 1 (10.0) patients (%)
Nausea (crossover, N = 10): 0 patients (%)
Neck pain (crossover, N = 10): 0 patients (%)
Nephrolithiasis (crossover, N = 10): 1 (10.0) patients (%)
Nerve compression (crossover, N = 10): 0 patients (%)
Neuralgia (crossover, N = 10): 0 patients (%)
Obsessive-compulsive disorder (crossover, N = 10): 0 patients (%)
Oropharyngeal pain (crossover, N = 10): 1 (10.0) patients (%)
Osteoporosis (crossover, N = 10): 0 patients (%)
Pain (crossover, N = 10): 0 patients (%)
Pain in extremity (crossover, N = 10): 0 patients (%)
Pain in jaw (crossover, N = 10): 0 patients (%)
Peripheral coldness (crossover, N = 10): 0 patients (%)
Pharyngitis streptococcal (crossover, N = 10): 0 patients (%)
Photophobia (crossover, N = 10): 0 patients (%)
Photopsia (crossover, N = 10): 0 patients (%)
Plantar fasciitis (crossover, N = 10): 0 patients (%)
Pleurisy (crossover, N = 10): 1 (10.0) patients (%)
Pneumonia (crossover, N = 10): 1 (10.0) patients (%)
Premenstrual syndrome (crossover, N = 10): 0 patients (%)
Punctate keratitis (crossover, N = 10): 0 patients (%)
Pyrexia (crossover, N = 10): 0 patients (%)
Radius fracture (crossover, N = 10): 0 patients (%)
Rash (crossover, N = 10): 1 (10.0) patients (%)
Rotator cuff syndrome (crossover, N = 10): 0 patients (%)
Sialoadenitis (crossover, N = 10): 0 patients (%)
Sinus congestion (crossover, N = 10): 0 patients (%)
Sinusitis (crossover, N = 10): 0 patients (%)
Sjogren's syndrome (crossover, N = 10): 0 patients (%)
Skin infection (crossover, N = 10): 0 patients (%)
Subdural haematoma (crossover, N = 10): 0 patients (%)
Syncope (crossover, N = 10): 0 patients (%)
Tendonitis (crossover, N = 10): 0 patients (%)
Thoracic outlet syndrome (crossover, N = 10): 0 patients (%)
Tongue dry (crossover, N = 10): 0 patients (%)
Tooth abscess (crossover, N = 10): 0 patients (%)
Tooth extraction (crossover, N = 10): 0 patients (%)
Toothache (crossover, N = 10): 0 patients (%)
Upper respiratory tract infection (crossover, N = 10): 2 (20.0) patients (%)
Vision blurred (crossover, N = 10): 1 (10.0) patients (%)
Visual field defect (crossover, N = 10): 1 (10.0) patients (%)
Visual impairment (crossover, N = 10): 0 patients (%)
Vitamin B12 deficiency (crossover, N = 10): 0 patients (%)
Vitamin D decreased (crossover, N = 10): 0 patients (%)
Vitreous floaters (crossover, N = 10): 1 (10.0) patients (%)
Vulvovaginal candidiasis (crossover, N = 10): 0 patients (%)
Wrist fracture (crossover, N = 10): 0 patients (%)
Xanthelasma (crossover, N = 10): 0 patients (%)
